± gives the expanded uncertainty stated by the source.
Assays:
[1] = 298.15 K, 101.33 kPa, Liquid; for viscosity: Falling or rolling sphere viscometry; for mass density: Vibrating tube method
[2] = mn = molality of the nth substance listed, in mol/kg; conditions: 100 kPa, Liquid, m2 = 0; for viscosity: Falling or rolling sphere viscometry; for mass density: Vibrating tube method

Structure (SMILES)	viscosity [1] [mPa·s]	mass density [1] [kg/m3]	viscosity ([2]; 293.15 K) [mPa·s]	mass density ([2]; 293.15 K) [kg/m3]	viscosity ([2]; 298.15 K) [mPa·s]	mass density ([2]; 298.15 K) [kg/m3]	viscosity ([2]; 303.15 K) [mPa·s]	mass density ([2]; 303.15 K) [kg/m3]	viscosity ([2]; 308.15 K) [mPa·s]	mass density ([2]; 308.15 K) [kg/m3]	viscosity ([2]; 313.15 K) [mPa·s]	mass density ([2]; 313.15 K) [kg/m3]	viscosity ([2]; 318.15 K) [mPa·s]	mass density ([2]; 318.15 K) [kg/m3]	viscosity ([2]; 323.15 K) [mPa·s]	mass density ([2]; 323.15 K) [kg/m3]
CCO [ethanol]	1.083 ± 0.013	785.339 ± 0.13	–	–	–	–	–	–	–	–	–	–	–	–	–	–
CCO [ethanol] + CCC(=O)OCCN1CCNCC1	–	–	1.189 ± 0.015	789.64 ± 0.15	1.083 ± 0.013	785.34 ± 0.15	0.989 ± 0.012	781.03 ± 0.15	0.905 ± 0.011	776.68 ± 0.16	0.831 ± 0.01	772.29 ± 0.16	0.765 ± 0.009	767.86 ± 0.16	0.706 ± 0.009	763.38 ± 0.16
O [water] + CCC(=O)OCCN1CCNCC1	–	–	0.994 ± 0.012	–	0.887 ± 0.011	–	0.799 ± 0.01	–	0.726 ± 0.009	994.07 ± 0.11	0.665 ± 0.008	–	0.614 ± 0.008	–	0.567 ± 0.007	–
O [water]	0.887 ± 0.012	–	–	–	–	–	–	–	–	–	–	–	–	–	–	–

Results, then the molecule that gave them:

viscosity [1] [mPa·s]	mass density [1] [kg/m3]	viscosity ([2]; 293.15 K) [mPa·s]	mass density ([2]; 293.15 K) [kg/m3]	viscosity ([2]; 298.15 K) [mPa·s]	mass density ([2]; 298.15 K) [kg/m3]	viscosity ([2]; 303.15 K) [mPa·s]	mass density ([2]; 303.15 K) [kg/m3]	viscosity ([2]; 308.15 K) [mPa·s]	mass density ([2]; 308.15 K) [kg/m3]	viscosity ([2]; 313.15 K) [mPa·s]	mass density ([2]; 313.15 K) [kg/m3]	viscosity ([2]; 318.15 K) [mPa·s]	mass density ([2]; 318.15 K) [kg/m3]	viscosity ([2]; 323.15 K) [mPa·s]	mass density ([2]; 323.15 K) [kg/m3]	Structure (SMILES)
0.559 ± 0.011	786.671 ± 0.13	–	–	–	–	–	–	–	–	–	–	–	–	–	–	CO [methanol]
–	–	0.595 ± 0.007	791.38 ± 0.15	0.559 ± 0.007	786.67 ± 0.15	0.527 ± 0.007	781.95 ± 0.15	0.498 ± 0.006	777.2 ± 0.16	0.471 ± 0.006	772.43 ± 0.16	0.448 ± 0.006	767.62 ± 0.16	0.428 ± 0.005	762.77 ± 0.16	CO [methanol] + CCC(=O)OCCN1CCNCC1
